Experimental findings from US20260083708A1, “IL-17 MODULATORS AND USES THEREOF” (NNOCARE PHARMA INC., priority 2024, published 2026) are described below.

pIC50: −log10 of the molar value.

In one test the target is T1, IL-17AA and IL-17RA (Homo sapiens, UniProt Q16552).
T1 construct: purchased Sino Biological 12047-H07B (IL-17AA); 10895-H02H (IL-17RA)
T1 sequence (Q16552 24-155): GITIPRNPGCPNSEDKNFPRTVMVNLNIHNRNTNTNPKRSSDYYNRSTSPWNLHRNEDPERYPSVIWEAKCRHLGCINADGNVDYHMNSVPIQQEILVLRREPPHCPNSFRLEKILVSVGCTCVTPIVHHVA
Put plainly: Competitive inhibition of human IL-17AA and IL-17RA binding (HTRF). Conditions: recombinant IL-17AA (His-tag) and IL-17RA (hFc-tag); read-out: IC50 for Inhibiting IL-AA/IL-RA Binding. On the procedure: Example 42. Competitive Inhibition of Human IL-17AA and IL-17RA Binding
Recombinant IL-17AA (His-tag, Catalog Number 12047-H07B) and IL-17RA (hFc-tag, Catalog Number 10895-H02H) were purchased from Sino Biological. In the experiment, 10 μL of IL-17AA (1 nM) or IL-17RA (1 nM) was added to 10 μL of anti-6His-Tb (0.4 nM, Revvity, Catalog Number 61HISTLF) or anti-human IgG-d2 (1 μg/mL, anti-human IgG-d2, Revvity, Catalog Number 61HFCDAF), respectively and incubated at room temperature for 1 hour. Compounds were serially diluted starting from 10 μM. 5 μL of each compound solution was incubated with 5 μL of a mixture of IL-17AA and anti-6His-Tb at room temperature for 2 hours. After pre-incubation, to which was added 10 μL of a mixture of IL-17RA and anti-human IgG-d2, and incubation was continued for additional 20 minutes. Subsequently, a microplate reader (Envision, PerkinElmer) was used to detect fluorescence intensity at 615 nm and 665 nm, and the ratio of intensity thereof indicates the degree of IL-17AA and IL-17RA interaction. The ratio of intensity in the absence of tested compound was the highest value of binding between IL-17AA and IL-17RA, and the ratio of intensity in the absence of IL-17AA was the lowest value.
(§1) Therefore, the percentage of inhibition of tested compound was calculated as
Experimental results were analyzed using XLfit (IDBS) for 4-parameter nonlinear fitting analysis, to provide the IC50 value for each tested compound (Table 1).

For test [1], the system named is IL-17AA-induced IL-17 signaling pathway. The experiment in a line: Inhibition of IL-17AA-induced IL-17 signaling pathway in HEK-Blue IL-17 reporter cells (SEAP). It is filed as cell-based. The settings on record: Homo sapiens; HEK-Blue IL-17 cells, IL-17AA 2.5 ng/mL, 20 hours; read-out: IC50 for Inhibiting IL-AA Signaling.
Description: Example 43. Inhibition of IL-17AA-Induced IL-17 Signaling Pathway
(§2) Interleukin-17 (IL-17) reporter cell line (HEK-Blue IL-17, InvivoGen, Catalog Number hkb-i117) is created by genetically engineering human IL-17RA/IL-17RC heterodimeric receptor and downstream adapter protein ACT1 into human embryonic kidney 293 cells (HEK293). These cells also express secreted embryonic alkaline phosphatase (SEAP) reporter gene induced by NF-κB and AP-1. Therefore, IL-17AA can activate NF-κB and AP-1 signaling pathways inside the cells by binding to IL-17RA/RC on cell membrane, leading to expression of SEAP protein. After a colorimetric reaction between SEAP protein and Quanti-Blue solution, the absorbance at 620 nm is measured using a microplate reader (BioTek H1M, Agilent, Catalog Number SH1M-SN) to determine IL-17AA-activated signaling pathway.
(§3) In the experiment, HEK-Blue IL-17 cells were cultured at 37° C. under 5% CO2 conditions using the recommended medium from InvivoGen's instruction. Compounds were serially diluted starting from 10 μM. 4 μL of each compound solution was added to 32 μL of cells (10,000 cells) at 37° C. for 1 hour. After pre-incubation, 4 μL of IL-17AA with a final concentration of 2.5 ng/mL (Sino Biological, Catalog Number 12047-HNAS) was added to the cells, and incubation was continued for additional 20 hours. After incubation, 5 μL of cell culture supernatant was added to 45 μL of Quanti-Blue for the colorimetric reaction. The group without tested compound had the highest absorbance at 620 nm, and the group without IL-17AA had the lowest absorbance at 620 nm.
as §1
(§4) Experimental results were analyzed using XLfit (IDBS) for 4-parameter nonlinear fitting analysis to provide the IC50 value for each tested compound (Table 1).

In test [2] the test system is IL-17AF-induced IL-17 signaling pathway. The experiment in a line: Inhibition of IL-17AF-induced IL-17 signaling pathway. The settings on record: Homo sapiens; IL-17AF used instead of IL-17AA; read-out: IC50 for Inhibiting IL-AF Signaling. It is filed as cell-based.
Description: as §2, §3, §1, §4
Example 44. Inhibition of IL-17AF-Induced IL-17 Signaling Pathway
The same experimental procedure to Example […] was followed where IL-17AF was used instead of IL-17AA.

For the compound `CCn1nccc1C(=O)N[C@H](C(=O)Nc1ccc([C@H](C)[C@@H](NC(=O)N(C)C2CC2)c2nncn2CC2CC2)cc1F)C(C1CC1)C1CC1` [Compound 21, N-((S)-1,1-dicyclopropyl-3-((4-((1R,2S)-1-(3-cyclopropyl-3-methylureido)-1-(4-(cyclopropylmethyl)-4H-1,2,4-triazol-3-yl)propan-2-yl)-2-fluorophenyl)amino)-3-oxopropan-2-yl)-1-ethyl-1H-pyrazole-5-carboxamide], the pIC50 on IL-17AA and IL-17RA is 8.66; in test [1], 8.74; in test [2], 8.43.

As for `CC(=O)N[C@@H](c1nncn1CC1CC1)[C@@H](C)c1ccc(NC(=O)[C@@H](NC(=O)c2ccnn2C(C)C)C(C2CC2)C2CC2)c(F)c1` [Compound 22, N-((S)-1-((4-((1R,2S)-1-acetamido-1-(4-(cyclopropylmethyl)-4H-1,2,4-triazol-3-yl)propan-2-yl)-2-fluorophenyl)amino)-3,3-dicyclopropyl-1-oxopropan-2-yl)-1-isopropyl-1H-pyrazole-5-carboxamide], the pIC50 at IL-17AA and IL-17RA is 7.89; in test [1], 7.55; in test [2] it was 7.34.

For `CCn1nccc1C(=O)N[C@H](C(=O)Nc1ccc([C@H](C)[C@@H](NC(=O)COC)c2nncn2CC23CC(F)(C2)C3)cc1F)C(C1CC1)C1CC1` [Compound 23, N-((S)-1,1-dicyclopropyl-3-((2-fluoro-4-((1R,2S)-1-(4-((3-fluorobicyclo[1.1.1]pentan-1-yl)methyl)-4H-1,2,4-triazol-3-yl)-1-(2-methoxyacetamido)propan-2-yl)phenyl)amino)-3-oxopropan-2-yl)-1-ethyl-1H-pyrazole-5-carboxamide], the pIC50 at IL-17AA and IL-17RA is 7.68; in test [1], 7.60; in test [2] it was 7.04.

For the compound `CCn1nccc1C(=O)N[C@H](C(=O)Nc1ccc([C@H](C)[C@@H](NC(=O)COC)c2nnnn2CC2CC2)cc1F)C(C1CC1)C1CC1` [Compound 24, N-((S)-1,1-dicyclopropyl-3-((4-((1R,2S)-1-(1-(cyclopropylmethyl)-1H-tetrazol-5-yl)-1-(2-methoxyacetamido)propan-2-yl)-2-fluorophenyl)amino)-3-oxopropan-2-yl)-1-ethyl-1H-pyrazole-5-carboxamide], the pIC50 on IL-17AA and IL-17RA was 8.49; in test [1] it was 8.60; in test [2], 8.00.

Consider `CCn1nccc1C(=O)N[C@H](C(=O)Nc1ccc([C@H](C)[C@@H](NC(=O)COC)c2nc(C)nn2CC2CC2)cc1F)C(C1CC1)C1CC1` [Compound 25, N-((S)-1,1-dicyclopropyl-3-((4-((1R,2S)-1-(1-(cyclopropylmethyl)-3-methyl-1H-1,2,4-triazol-5-yl)-1-(2-methoxyacetamido)propan-2-yl)-2-fluorophenyl)amino)-3-oxopropan-2-yl)-1-ethyl-1H-pyrazole-5-carboxamide], for which the pIC50 at IL-17AA and IL-17RA is 7.24; in test [1] it was 6.94; in test [2], 6.50.

`CCc1nonc1C(=O)N[C@H](C(=O)Nc1ccc([C@H](C)[C@@H](NC(=O)[C@H](C)OC)c2nncn2CC2CC2)cc1F)C(C1CC1)C1CC1` [Compound 26, N-((S)-1,1-dicyclopropyl-3-((4-((1R,2S)-1-(4-(cyclopropylmethyl)-4H-1,2,4-triazol-3-yl)-1-((S)-2-methoxypropanamido)propan-2-yl)-2-fluorophenyl)amino)-3-oxopropan-2-yl)-4-ethyl-1,2,5-oxadiazole-3-carboxamide]: the pIC50 at IL-17AA and IL-17RA was 9.10; in test [1], 8.70; in test [2] it was 8.35.

For the compound `CCn1nccc1C(=O)N[C@H](C(=O)Nc1ccc([C@H](C)[C@@H](NC(=O)COC)c2nccnc2OC2CC2)cc1F)C(C1CC1)C1CC1` [Compound 27, N-((S)-1-((4-((1R,2S)-1-(3-cyclopropoxypyrazin-2-yl)-1-(2-methoxyacetamido)propan-2-yl)-2-fluorophenyl)amino)-3,3-dicyclopropyl-1-oxopropan-2-yl)-1-ethyl-1H-pyrazole-5-carboxamide], the pIC50 on IL-17AA and IL-17RA is 7.57; in test [1], 7.41; in test [2], 6.99.

On to `CCn1nccc1C(=O)N[C@H](C(=O)Nc1ccc([C@H](C)[C@@H](NC(=O)COC)c2ncccc2CC2CC2)cc1F)C(C1CC1)C1CC1` [Compound 28, N-((S)-1,1-dicyclopropyl-3-((4-((1R,2S)-1-(3-(cyclopropylmethyl)pyridin-2-yl)-1-(2-methoxyacetamido)propan-2-yl)-2-fluorophenyl)amino)-3-oxopropan-2-yl)-1-ethyl-1H-pyrazole-5-carboxamide], for which the pIC50 on IL-17AA and IL-17RA is 8.11; in test [1], 8.08; in test [2], 7.62.

For the compound `CCc1nonc1C(=O)N[C@H](C(=O)Nc1ccc([C@H](C)[C@@H](NC(=O)COC)c2nnnn2CC2CC2)cc1F)C(C1CC1)C1CC1` [Compound 29, N-((S)-1,1-dicyclopropyl-3-((4-((1R,2S)-1-(1-(cyclopropylmethyl)-1H-tetrazol-5-yl)-1-(2-methoxyacetamido)propan-2-yl)-2-fluorophenyl)amino)-3-oxopropan-2-yl)-4-ethyl-1,2,5-oxadiazole-3-carboxamide], the pIC50 at IL-17AA and IL-17RA is 9.05; in test [1] it was 8.70; in test [2], 8.49.

As for `CCCn1cnc([C@H](NC(=O)COC)[C@@H](C)c2ccc(NC(=O)[C@@H](NC(=O)c3ccnn3CC)C(C3CC3)C3CC3)c(F)c2)n1` [Compound 30, N-((S)-1,1-dicyclopropyl-3-((2-fluoro-4-((1R,2S)-1-(2-methoxyacetamido)-1-(1-propyl-1H-1,2,4-triazol-3-yl)propan-2-yl)phenyl)amino)-3-oxopropan-2-yl)-1-ethyl-1H-pyrazole-5-carboxamide], the pIC50 was 7.64 on IL-17AA and IL-17RA; 7.49 in test [1]; 7.18 in test [2].

`CCCn1ncnc1[C@H](NC(=O)COC)[C@@H](C)c1ccc(NC(=O)[C@@H](NC(=O)c2ccnn2CC)C(C2CC2)C2CC2)c(F)c1` [Compound 31, N-((S)-1,1-dicyclopropyl-3-((2-fluoro-4-((1R,2S)-1-(2-methoxyacetamido)-1-(1-propyl-1H-1,2,4-triazol-5-yl)propan-2-yl)phenyl)amino)-3-oxopropan-2-yl)-1-ethyl-1H-pyrazole-5-carboxamide]: the pIC50 on IL-17AA and IL-17RA was 7.96; in test [1] it was 8.16; in test [2], 7.89.

Take `COCC(=O)N[C@@H](c1nncn1CC1CC1)[C@@H](C)c1ccc(NC(=O)[C@@H](NC(=O)OCc2cc(C(F)F)on2)C(C2CC2)C2CC2)c(F)c1` [Compound 32, (5-(Difluoromethyl)isoxazol-3-yl)methyl ((S)-1,1-dicyclopropyl-3-((4-((1R,2S)-1-(4-(cyclopropylmethyl)-4H-1,2,4-triazol-3-yl)-1-(2-methoxyacetamido)propan-2-yl)-2-fluorophenyl)amino)-3-oxopropan-2-yl)carbamate]: the pIC50 at IL-17AA and IL-17RA is 8.55; in test [1], 8.24; in test [2], 8.07.
